# Assay results: US9655887B2, “Pharmaceutical composition and the use thereof, and application regime of said pharmaceutical composition for on-demand contraception” (BAYER PHARMA AKTIENGESELLSCHAFT, priority 2013, dated 2017)
# Biological target: EP2 subtype of the human PGE2 receptor (hEP2 receptor) (Homo sapiens, UniProt P43116)
# Test: cAMP antagonism test, human prostaglandin E2 (subtype EP2) receptor signal
# Assay type: cell-based
# How it was run: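 Cells (625000 cells/ml, mixed with cAMP-d2) were preincubated 20 min at RT with compound ([…]). They were then stimulated 60 min at RT with a 3× PGE2 solution (1.5 nM) in PBS-IBMX and lysed for 20 min. cAMP was read by HTRF as the 665/620 nm ratio ×10000, with antagonism seen as a rise in FRET signal.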
# Chain of EP2 subtype of the human PGE2 receptor (hEP2 receptor) (P43116 whole entry): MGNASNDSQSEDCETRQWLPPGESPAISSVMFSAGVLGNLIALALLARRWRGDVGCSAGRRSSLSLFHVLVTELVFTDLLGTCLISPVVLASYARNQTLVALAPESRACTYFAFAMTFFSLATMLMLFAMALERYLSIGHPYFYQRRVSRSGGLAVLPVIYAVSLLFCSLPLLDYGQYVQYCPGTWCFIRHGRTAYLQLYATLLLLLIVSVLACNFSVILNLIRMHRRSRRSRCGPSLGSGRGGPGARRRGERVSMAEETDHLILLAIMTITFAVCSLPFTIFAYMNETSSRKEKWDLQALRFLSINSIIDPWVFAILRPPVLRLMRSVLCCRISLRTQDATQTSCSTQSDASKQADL
row,IC50 [nM],Structure (SMILES)
1,> 50,"COCCNC(=O)c1ccc2nn(CC3CN(C(=O)c4ccc(C(F)(F)F)c(F)c4)C3)cc2c1C [Example E92, 2-({1-[3-fluoro-4-(trifluoromethyl)benzoyl]azetidin-3-yl}methyl)-N-(2-methoxyethyl)-4-methyl-2H-indazole-5-carboxamide]"
2,> 50,"COCCNC(=O)c1ccc2nn(CC3CCN(C(=O)c4ccc(SC(F)(F)F)cc4)CC3)cc2c1C [Example E55, N-(2-methoxyethyl)-4-methyl-2-[(1-{4-[(trifluoromethyl)sulphanyl]benzoyl}piperidin-4-yl)methyl]-2H-indazole-5-carboxamide]"
3,> 50,"COCCNC(=O)c1ccc2nn(CC3CCN(C(=O)c4ccc(C)cc4F)CC3)cc2c1C [Example E9, 2-{[1-(2-fluoro-4-methylbenzoyl)piperidin-4-yl]methyl}-N-(2-methoxyethyl)-4-methyl-2H-indazole-5-carboxamide]"
4,> 50,"Cc1c(C(=O)NCCOC(F)(F)F)ccc2nn(CC3CCN(C(=O)c4ccc(Cl)cc4)CC3)cc12 [Example E77, 2-{[1-(4-chlorobenzoyl)piperidin-4-yl]methyl}-4-methyl-N-[2-(trifluoromethoxy)ethyl]-2H-indazole-5-carboxamide]"
5,> 50,"COCCNC(=O)c1ccc2nn(CC3CCN(C(=O)c4ccc(-c5ccc(OC)cc5C)cc4)CC3)cc2c1C [Example E183, N-(2-methoxyethyl)-2-({1-[(4′-methoxy-2′-methylbiphenyl-4-yl)carbonyl]piperidin-4-yl}methyl)-4-methyl-2H-indazole-5-carboxamide]"
6,> 50,"COCCNC(=O)c1ccc2nn(CC3CCN(C(=O)c4ccc(-c5ccc(OC)cc5)cc4F)CC3)cc2c1C [Example E41, 2-({1-[(3-fluoro-4′-methoxybiphenyl-4-yl)carbonyl]piperidin-4-yl}methyl)-N-(2-methoxyethyl)-4-methyl-2H-indazole-5-carboxamide]"
7,> 50,"COCCNC(=O)c1ccc2nn(CC3CCN(C(=O)c4ccc(Oc5cccc(C(F)(F)F)c5)cc4)CC3)cc2c1C [Example E168, N-(2-methoxyethyl)-4-methyl-2-[(1-{4-[3-(trifluoromethyl)phenoxy]benzoyl}piperidin-4-yl)methyl]-2H-indazole-5-carboxamide]"
8,> 50,"COCCNC(=O)c1ccc2nn(CC3CCN(C(=O)c4ccc(-c5ccc(OC)cc5F)cc4F)CC3)cc2c1C [Example E177, 2-({1-[(2′,3-difluoro-4′-methoxybiphenyl-4-yl)carbonyl]piperidin-4-yl}methyl)-N-(2-methoxyethyl)-4-methyl-2H-indazole-5-carboxamide]"
9,> 50,"COCCNC(=O)c1ccc2nn(CC3CCN(C(=O)c4ccc(Oc5ccc(F)c(F)c5)cc4)CC3)cc2c1C [Example E172, 2-({1-[4-(3,4-difluorophenoxy)benzoyl]piperidin-4-yl}methyl)-N-(2-methoxyethyl)-4-methyl-2H-indazole-5-carboxamide]"
10,> 50,"COCCNC(=O)c1ccc2nn(CC3CCN(C(=O)c4ccc(Oc5cccc(C(F)(F)F)n5)cc4)CC3)cc2c1C [Example E165, N-(2-methoxyethyl)-4-methyl-2-{[1-(4-{[6-(trifluoromethyl)pyridin-2-yl]oxy}benzoyl)-piperidin-4-yl]methyl}-2H-indazole-5-carboxamide]"
11,> 50,"COCCNC(=O)c1ccc2nn(CC3CCN(C(=O)c4ccc(-c5ccc(F)cc5)cc4F)CC3)cc2c1C [Example E40, 2-({1-[(3,4′-difluorobiphenyl-4-yl)carbonyl]piperidin-4-yl}methyl)-N-(2-methoxyethyl)-4-methyl-2H-indazole-5-carboxamide]"
12,> 50,"COCCNC(=O)c1ccc2nn(CC3CCN(C(=O)c4ccc(S(=O)(=O)C(F)(F)F)cc4)CC3)cc2c1C [Example E24, N-(2-methoxyethyl)-4-methyl-2-[(1-{4-[(trifluoromethyl)sulphonyl]benzoyl}piperidin-4-yl)methyl]-2H-indazole-5-carboxamide]"
13,> 50,"COCCNC(=O)c1ccc2nn(CC3CCN(C(=O)c4ccc(C(F)(F)F)cc4F)CC3)cc2c1C [Example E10, 2-({1-[2-fluoro-4-(trifluoromethyl)benzoyl]piperidin-4-yl}methyl)-N-(2-methoxyethyl)-4-methyl-2H-indazole-5-carboxamide]"
14,> 50,"COCCNC(=O)c1ccc2nn(CC3CCN(C(=O)c4ccc(C(C)(C)C)cc4)CC3)cc2c1C [Example E155, 2-{[1-(4-tert-butylbenzoyl)piperidin-4-yl]methyl}-N-(2-methoxyethyl)-4-methyl-2H-indazole-5-carboxamide]"
15,> 50,"COCCNC(=O)c1ccc2nn(CC3CCN(C(=O)c4ccc(Br)c(C)c4)CC3)cc2c1C [Example E154, 2-{[1-(4-bromo-3-methylbenzoyl)piperidin-4-yl]methyl}-N-(2-methoxyethyl)-4-methyl-2H-indazole-5-carboxamide]"
16,> 50,"Cc1c(C(=O)NCC(F)(F)F)ccc2nn(CC3CCN(C(=O)c4ccc(Oc5cccc(F)c5)cc4)CC3)cc12 [Example E131, 2-({1-[4-(3-fluorophenoxy)benzoyl]piperidin-4-yl}methyl)-4-methyl-N-(2,2,2-trifluoro-ethyl)-2H-indazole-5-carboxamide]"

row,IC50 [nM],Structure (SMILES)
1,> 50,COCCNC(=O)c1ccc2nn(CC3CCN(C(=O)c4cccc(C(F)(F)F)c4)CC3)cc2c1C [Example E25]
2,> 50,"Cc1c(C(=O)NCC(F)(F)F)ccc2nn(CC3CN(C(=O)c4ccc(Oc5ccc(Cl)cc5)cc4)C3)cc12 [Example E115, 2-({1-[4-(4-chlorophenoxy)benzoyl]azetidin-3-yl}methyl)-4-methyl-N-(2,2,2-trifluoro-ethyl)-2H-indazole-5-carboxamide]"
3,> 50,"COCCNC(=O)c1ccc2nn(CC3CCN(C(=O)c4ccc(-c5cccc(C(F)(F)F)n5)cc4)CC3)cc2c1C [Example E182, N-(2-methoxyethyl)-4-methyl-2-[(1-{4-[6-(trifluoromethyl)pyridin-2-yl]benzoyl}-piperidin-4-yl)methyl]-2H-indazole-5-carboxamide]"
4,> 50,"Cc1c(C(=O)NCCOC2CCC2)ccc2nn(CC3CN(C(=O)c4ccc(OC(F)(F)F)cc4)C3)cc12 [Example E101, N-[2-(cyclobutyloxy)ethyl]-4-methyl-2-({1-[4-(trifluoromethoxy)benzoyl]azetidin-3-yl}methyl)-2H-indazole-5-carboxamide]"
5,> 50,"COCCNC(=O)c1ccc2nn(CC3CCN(C(=O)c4ccc(-c5cncc(F)c5)cc4)CC3)cc2c1C [Example E199, 2-({1-[4-(5-fluoropyridin-3-yl)benzoyl]piperidin-4-yl}methyl)-N-(2-methoxyethyl)-4-methyl-2H-indazole-5-carboxamide]"
6,> 50,"Cc1c(C(=O)NCCOCC2CC2)ccc2nn(CC3CN(C(=O)c4ccc(Oc5ccc(F)cc5)cc4)C3)cc12 [Example E103, N-[2-(cyclopropylmethoxy)ethyl]-2-({1-[4-(4-fluorophenoxy)benzoyl]azetidin-3-yl}-methyl)-4-methyl-2H-indazole-5-carboxamide]"
7,> 50,"COCCNC(=O)c1ccc2nn(CC3CCN(C(=O)c4ccc(-c5ccc(F)cc5OC)cc4)CC3)cc2c1C [Example E193, 2-({1-[(4′-fluoro-2′-methoxybiphenyl-4-yl)carbonyl]piperidin-4-yl}methyl)-N-(2-methoxyethyl)-4-methyl-2H-indazole-5-carboxamide]"
8,> 50,"COCCNC(=O)c1ccc2nn(CC3CN(C(=O)c4ccc(C(F)(F)F)cc4F)C3)cc2c1C [Example E90, 2-({1-[2-fluoro-4-(trifluoromethyl)benzoyl]azetidin-3-yl}methyl)-N-(2-methoxyethyl)-4-methyl-2H-indazole-5-carboxamide]"
9,> 50,"COCCNC(=O)c1ccc2nn(CC3CCN(C(=O)c4ccc(-c5ccc(OC)nc5)cc4)CC3)cc2c1C [Example E188, N-(2-methoxyethyl)-2-({1-[4-(6-methoxypyridin-3-yl)benzoyl]piperidin-4-yl}methyl)-4-methyl-2H-indazole-5-carboxamide]"
10,> 50,Cc1c(C(=O)NCCOCC(F)(F)F)ccc2nn(CC3CCN(C(=O)c4ccc(Oc5ccc(F)cc5)cc4)CC3)cc12 [Example E67]
11,> 50,"COCCNC(=O)c1ccc2nn(CC3CCN(C(=O)c4ccc(C(F)F)cc4)CC3)cc2c1C [Example E30, 2-({1-[4-(difluoromethyl)benzoyl]piperidin-4-yl}methyl)-N-(2-methoxyethyl)-4-methyl-2H-indazole-5-carboxamide]"
12,> 50,"COCCNC(=O)c1ccc2nn(CC3CCN(C(=O)c4ccc(-c5ccc(C)nc5)cc4)CC3)cc2c1C [Example E190, N-(2-methoxyethyl)-4-methyl-2-({1-[4-(6-methylpyridin-3-yl)benzoyl]piperidin-4-yl}methyl)-2H-indazole-5-carboxamide]"
13,> 50,"COCCNC(=O)c1ccc2nn(CC3CN(C(=O)c4ccc(C5CC5)cc4)C3)cc2c1C [Example E94, 2-{[1-(4-cyclopropylbenzoyl)azetidin-3-yl]methyl}-N-(2-methoxyethyl)-4-methyl-2H-indazole-5-carboxamide]"
14,> 50,"COCCNC(=O)c1ccc2nn(CC3CCN(C(=O)c4ccc(Oc5ccc(OC)cc5)cc4)CC3)cc2c1C [Example E17, N-(2-methoxyethyl)-2-({1-[4-(4-methoxyphenoxy)benzoyl]piperidin-4-yl}methyl)-4-methyl-2H-indazole-5-carboxamide]"
15,> 50,"COCCNC(=O)c1ccc2nn(CC3CCN(C(=O)c4ccc(Oc5ccccn5)cc4)CC3)cc2c1C [Example E162, N-(2-methoxyethyl)-4-methyl-2-({1-[4-(pyridin-2-yloxy)benzoyl]piperidin-4-yl}methyl)-2H-indazole-5-carboxamide]"

row,Structure (SMILES),IC50 [nM]
1,"Cc1c(C(=O)NCCOC(C)(C)C)ccc2nn(CC3CCN(C(=O)c4ccc(-c5ccc(F)cc5)cc4)CC3)cc12 [Example E83, N-(2-tert-butoxyethyl)-2-({1-[(4′-fluorobiphenyl-4-yl)carbonyl]piperidin-4-yl}methyl)-4-methyl-2H-indazole-5-carboxamide]",> 50
